Usually logP stands for a log measure of how a compound divides between an organic and an aqueous phase. A low value points to a more hydrophilic compound.

Drawing on the OPERA property sets (Mansouri et al. 2018), this text covers logP for 21 compounds.

As for `O=C(Nc1ccccc1Cl)c1ccccc1O`, the logP amounted to 4.35.

`O=C(Nc1ccc(Cl)cc1)c1ccccc1O` had a logP of 4.5.

`O=C(Nc1ccc(F)cc1F)c1cc(Cl)cc(Cl)c1O` returned a logP of 4.55.

`Cc1cc(Cl)ccc1NC(=O)c1ccccc1O` displayed a logP of 5.18.

In turn, `O=C(Nc1ccc(Cl)cc1[N+](=O)[O-])c1ccccc1O` gave a logP of 4.09.

Turning to `O=C(Nc1ccccc1)c1cc([N+](=O)[O-])ccc1O`, the logP was 3.66.

`O=C(Nc1ccc(Cl)cc1)c1cc(Cl)cc(Cl)c1O` returned a logP of 5.15.

In the case of `O=C(Nc1ccc(F)cc1F)c1cc(Br)cc(Br)c1O`, the logP turned out to be 4.99.

As to `O=C(Nc1ccccc1[N+](=O)[O-])c1ccccc1O`, the logP is 2.87.

The compound `Cc1cc(Cl)ccc1NC(=O)c1cc(F)ccc1O` yielded a logP of 4.89.

`O=C(Nc1ccc(F)cc1)c1cc(Cl)cc(Cl)c1O` registered a logP of 4.76.

Consider `O=C(Nc1ccc(Cl)cc1[N+](=O)[O-])c1cc(Cl)cc(Cl)c1O`, for which the logP stood at 5.08.

The compound `Cc1ccccc1NC(=O)c1cc(Cl)ccc1O` had a logP of 4.21.

For `O=C(Nc1ccc(Cl)cc1[N+](=O)[O-])c1cc(Br)cc(Br)c1O`, the logP was 5.05.

`Cc1cc(Br)ccc1NC(=O)c1cc(F)ccc1O` came in with a logP of 5.15.

With `O=C(Nc1ccccc1)c1cc(Cl)ccc1O`, the logP amounted to 4.05.

In turn, `Cc1cc([N+](=O)[O-])ccc1NC(=O)c1cc(Cl)cc(Cl)c1O` registered a logP of 4.51.

The compound `O=C(Nc1ccccc1)c1cc(Cl)cc(Cl)c1O` came in with a logP of 4.01.

For the compound `O=C(Nc1ccc(Cl)cc1)c1cc(Br)ccc1O`, the logP was 5.02.

Compound `O=C(Nc1ccc(Br)cc1)c1ccccc1O` had a logP of 4.51.

Compound `O=C(Nc1ccc(Cl)cc1Cl)c1ccccc1O` displayed a lipophilicity (logP) of 5.49.
